Measurements from patent publication US8372819B2, “Methods and compositions for targeting skip” (Salk Institute for Biological Studies, priority 2010, dated 2013).
Where a SMILES comes first, the peptide text is derived from it. The star is where a group is joined. Cbz = O=C(OCc1ccccc1)*

Experiments:
[1] = tested on: p21; assay: Immunoblot of p21 protein in U2OS cells; format: cell-based, human; conditions: U2OS cells transfected with control or SKIP siRNA, proteasome inhibitor treatment
Description: As observed for many essential proteins, depletion of SKIP by siRNA increases endogenous p53 levels. […] To assess whether SKIP plays a role in the normal p53 stress response, endogenous p53 was induced in two human cancer cell lines, U2OS (osteosarcoma) and HCT116 (colon cancer), using the chemotherapeutic DNA damage agents etoposide (U2OS cells) or doxorubicin (HCT116 cells). […] Consequently, PUMA expression was elevated in SKIP-depleted cells, and increased further with DNA damage (FIG. 1). In contrast, both basal and stress-induced p21 mRNA levels decreased in SKIP-depleted HCT116 or U2OS cells, compared with cells treated with a control siRNA, accompanied by a strong block to p21 protein expression, as detected by immunoblot (FIG. 1A, 1B, lanes 1-3 and 4-6). Similar results were obtained using two different SKIP siRNAs.
To determine whether SKIP might also affect p21 protein stability, the rate of p21 protein turnover was measured in SKIP knockdown cells in the absence of stress. Forty-eight hours after transfection with control or SKIP siRNA, U2OS cells were treated with cycloheximide (CHX) to prevent new protein synthesis, and the decay of endogenous p21 protein was measured.

[2] = tested on: p21 mRNA; assay: TGF-β induction of p21 mRNA in MDA-MB-231 cells (qRT-PCR); format: cell-based, human; conditions: TGF-β 5 ng/mL
Experimental: FIG. 5. SKIP is required for Nutlin and TGF-β-induced p21 gene expression. (A, left) qRT-PCR analysis of p21 and PUMA mRNA levels. U2OS cells were transfected with control or SKIP siRNA for 48 h, and incubated in the presence or absence of Nutlin (10 μM) for 18 h. (Right, lanes 1-4) Protein lysates were subjected to immunoblot analysis. (B) qRT-PCR analysis of p21 mRNA levels. MDA-MB-231 cells were transfected with control or SKIP siRNA for 48 h, followed by incubation in the presence or absence of TGF-β (5 ng/mL) for the indicated times. (C, lanes 1-6) Immunoblot analysis of SKIP, Smad2/3, p53, p21, or GAPDH in cells transfected with control or SKIP siRNA for 48 h, followed by treatment with TGF-β (5 ng/mL) for the indicated times. (D, left) qRT-PCR analysis of p21 mRNA levels in HCT 116 p53^−/− cells, H1299 cells, HeLa cells and MDA-MB-231 cells transfected with control or SKIP siRNA for 48 h. (Right, lanes 1-8) Protein lysates were subjected to immunoblot analysis. All of the mRNA expression levels were normalized to GAPDH mRNA, and are represented as fold increase or decrease over untreated cells. Error bars represent the standard deviation obtained from three independent experiments. […]

[3] = tested on: Ser2-phosphorylated RNAPII; assay: Immunoblot of Ser2-phosphorylated RNAPII in response to FP; format: cell-based
Experimental: FIG. 8. Immunoblot detection of SKIP and Ser2-phosphorylated RNAPII in response to increasing levels of flavopiridol.
In contrast, levels of Ser2-phosphorylated RNAPII decline with exposure to much higher concentrations of FP (>100 nM).

[4] = tested on: SKIP mRNA; assay: SKIP mRNA levels in 293 cells exposed to FP; format: cell-based; conditions: 10 nM FP
Experimental: (§1) SKIP expression is blocked by Flavopiridol (FP), a CDK inhibitor currently in clinical trials. […] SKIP protein levels decline starting at lOnM FP, though mRNA levels are unaffected at 10 nM FP.

[5] = tested on: SKIP protein; assay: Immunoblot of endogenous SKIP protein in 293 cells exposed to FP; format: cell-based; conditions: 293 cells exposed for 18 hr
Experimental: as §1

[6] = target: T1, SKIP (Ski-interacting protein), endogenous (human, UniProt Q13573 2-536); assay: GST pull-down from HCT116 nuclear extract, Western blot
T1 construct: Endogenous protein of human HCT116 nuclear extract (pull-downs) or U2OS whole-cell lysate (co-IP); also called SNW1; NCoA62
T1 sequence: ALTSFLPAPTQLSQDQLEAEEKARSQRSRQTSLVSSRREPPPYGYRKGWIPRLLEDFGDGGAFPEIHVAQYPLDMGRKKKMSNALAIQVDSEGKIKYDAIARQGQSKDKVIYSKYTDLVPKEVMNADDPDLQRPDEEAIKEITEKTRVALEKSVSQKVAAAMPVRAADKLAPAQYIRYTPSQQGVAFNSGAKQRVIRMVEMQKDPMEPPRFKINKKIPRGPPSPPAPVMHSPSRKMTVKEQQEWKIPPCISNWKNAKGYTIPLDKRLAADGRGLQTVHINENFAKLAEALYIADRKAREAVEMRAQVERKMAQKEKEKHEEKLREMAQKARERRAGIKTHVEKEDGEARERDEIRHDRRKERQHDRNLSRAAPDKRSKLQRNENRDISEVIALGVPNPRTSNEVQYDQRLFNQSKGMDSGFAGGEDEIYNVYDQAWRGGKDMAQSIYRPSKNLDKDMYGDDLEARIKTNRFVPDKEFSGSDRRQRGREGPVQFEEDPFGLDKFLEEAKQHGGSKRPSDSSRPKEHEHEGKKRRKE
Experimental: SST fusion constructs were expressed in BL21 *Escherichia coli* cells, and crude bacterial lysates were prepared by sonication in GST lysis buffer (25 mM Tris at pH 7.5, 150 mM NaCl, 1 mM EDTA, protease inhibitor). Approximately 10 μg of the appropriate GST fusion proteins was incubated with precleared HCT116 nuclear extract for 2 h at 4° C. The binding reaction was then added with 30 μL of glutathione-Sepharose beads and mixed for another 1 h at 4° C. The beads were washed four times with the above GST lysis buffer, separated on a 10% SDS-PACE, and analyzed by Western blotting.
(§2) Figure 4: FIG. 4. SKIP associates with unspliced p21 mRNA and recruits U2AF65. (A) Immunoblot analysis of the interaction between SKIP, U2AF35, and U2AF65 in GST pull-down experiments from HCT116 cell nuclear extract. (B) Total proteins were extracted from U2OS cells for coimmunoprecipitation. Immunoprecipitates were examined by Western blot using antibodies against SKIP, U2AF35, or U2AF65. (C) ChIP analysis of U2AF65 binding on the p21 and PUMA genes. U2OS cells were transfected with control or SKIP siRNA for 48 h, followed by treatment with vehicle or etoposide (20 μM) for 6 h. Protein extracts were immunoprecipitated with antibodies against U2AF65. ChIP-enriched DNA was quantified by qPCR with the indicated primers in FIG. 2A. […] Immunoprecipitated p21 mRNA was detected using qRT-PCR with the indicated primers.

[7] = target: T1, SKIP (Ski-interacting protein), …; assay: co-immunoprecipitation with SKIP antibody from U2OS whole-cell lysate, Western blot
Experimental: The immune complexes were subjected to SDS-PAGE followed by immunoblotting with the secondary antibody. For RNA-IP experiments, cells were lysed in ice-cold NET-2 buffer (50 mM Tris-HCL at pH 7.4, 300 mM NaCl, 0.5% [vol/vol] Nonidet P-40, 1× complete protease inhibitors [Roche], 100 U/mL RNase OUT [Invitrogen]). The lysate was incubated with the indicated antibodies or control normal rabbit/mouse IgG on a rotator overnight at 4° C., followed by addition of protein A/G agarose (Invitrogen) for 2 h at 4° C. Beads were then washed four times using the NET-2 buffer. Immunoprecipitated RNA was then extracted using Trizol and reverse-transcribed with random hexamers. The resulting cDNA was analyzed with the indicated primer sets (Table 5).
as §2, with “U2OS cells were transfected with control or SKIP siRNA for 48 h, followed by treatment with vehicle or etoposide (20 μM) for 6 h. Protein extracts were immunoprecipitated with antibodies against U2AF65.” left out

CC(C)C[C@@H](C=O)NC(=O)[C@H](CC(C)C)NC(=O)[C@H](CC(C)C)NC(=O)OCc1ccccc1 [MG132] (Cbz-Leu-Leu-Leu-aldehyde)
p21 protein levels [1]: elevated p21 protein levels

TGF-β
time of peak p21 mRNA levels after induction [2]: 4 h

CN1CC[C@H](c2c(O)cc(O)c3c(=O)cc(-c4ccccc4Cl)oc23)[C@H](O)C1 [FP, Flavopiridol]
FP concentration at which levels of Ser2-phosphorylated RNAPII decline [3]: > 100 nM | SKIP mRNA levels [4]: unaffected | FP concentration at which SKIP protein levels start to decline [5]: lO

B1: GST-U2AF35 (other, UniProt Q01081 1-240, looked up)
chain: MAEYLASIFGTEKDKVNCSFYFKIGACRHGDRCSRLHNKPTFSQTIALLNIYRNPQNSSQSADGLRCAVSDVEMQEHYDEFFEEVFTEMEEKYGEVEEMNVCDNLGDHLVGNVYVKFRREEDAEKAVIDLNNRWFNGQPIHAELSPVTDFREACCRQYEMGECTRGGFCNFMHLKPISRELRRELYGRRRKKHRSRSRSRERRSRSRDRGRGGGGGGGGGGGGRERDRRRSRDRERSGRF
notes: not shown: glutathione-S-transferase (GST) fusion tag
binding result [6]: no binding

B2: U2AF35 (other, human, UniProt Q01081 2-240, looked up)
chain: AEYLASIFGTEKDKVNCSFYFKIGACRHGDRCSRLHNKPTFSQTIALLNIYRNPQNSSQSADGLRCAVSDVEMQEHYDEFFEEVFTEMEEKYGEVEEMNVCDNLGDHLVGNVYVKFRREEDAEKAVIDLNNRWFNGQPIHAELSPVTDFREACCRQYEMGECTRGGFCNFMHLKPISRELRRELYGRRRKKHRSRSRSRERRSRSRDRGRGGGGGGGGGGGGRERDRRRSRDRERSGRF
notes: Endogenous protein from human cancer cell lines; also called nuclear U2AF35
binding result [7]: no binding
